ChEMBL document CHEMBL3639274, “Compounds for the treatment of neurodegenerative diseases” (2015)
pIC50, pKi: −log10 of the molar value.

Legend:
[1] = biological target: Microtubule-associated protein tau (Homo sapiens, UniProt P10636); test: Thio S Fluorometry Assay: The Thio S fluorometry assay as a primary screening method to identify tau protein aggregation inhibitors from our small molecule library. Aggregated tau fibrils were prepared in the presence of equimolar ratios of TauRD and heparin (10 μM each) in 20 mM Na-phosphate buffer, pH7.4. The reaction mixture was incubated at 37° C. with shaking (800-1000 rpm) for 22-24 hr (or for 3 days). In the Thio S inhibition assays, test compounds at 0, 0.1, 1, 10 and 100 μM were added at time 0 into the reaction containing TauRD and heparin. The same reaction mixture (+/− increasing concentrations of compounds) but without TauRD were also set up in parallel to serve as background controls. For all test compounds background fluorescence readings were very low, usually <5% of those of the TauRD-containing wells. For each compound, the IC50 was calculated using Prism version 5 software (GraphPad Software) by nonlinear regression [(Log [inhibitor] vs. normalized response; variable slope)].
Alpha-synuclein = Alpha-synuclein (Homo sapiens, UniProt P37840); test: In order to assess relative binding affinities of the test compounds for aggregated α-synuclein, competition assays were set up with a radiolabeled molecule already known to bind to α-synuclein fibrils and non-radiolabeled test compounds. In order to induce its aggregation, α-synuclein was incubated in phosphate buffered saline (PBS, pH 7.4) at 37° C. for three days with shaking (1,400 rpm). Competitive binding assays were carried out in 12×75 mm borosilicate glass tubes.

Sequence of Microtubule-associated protein tau (P10636 whole entry): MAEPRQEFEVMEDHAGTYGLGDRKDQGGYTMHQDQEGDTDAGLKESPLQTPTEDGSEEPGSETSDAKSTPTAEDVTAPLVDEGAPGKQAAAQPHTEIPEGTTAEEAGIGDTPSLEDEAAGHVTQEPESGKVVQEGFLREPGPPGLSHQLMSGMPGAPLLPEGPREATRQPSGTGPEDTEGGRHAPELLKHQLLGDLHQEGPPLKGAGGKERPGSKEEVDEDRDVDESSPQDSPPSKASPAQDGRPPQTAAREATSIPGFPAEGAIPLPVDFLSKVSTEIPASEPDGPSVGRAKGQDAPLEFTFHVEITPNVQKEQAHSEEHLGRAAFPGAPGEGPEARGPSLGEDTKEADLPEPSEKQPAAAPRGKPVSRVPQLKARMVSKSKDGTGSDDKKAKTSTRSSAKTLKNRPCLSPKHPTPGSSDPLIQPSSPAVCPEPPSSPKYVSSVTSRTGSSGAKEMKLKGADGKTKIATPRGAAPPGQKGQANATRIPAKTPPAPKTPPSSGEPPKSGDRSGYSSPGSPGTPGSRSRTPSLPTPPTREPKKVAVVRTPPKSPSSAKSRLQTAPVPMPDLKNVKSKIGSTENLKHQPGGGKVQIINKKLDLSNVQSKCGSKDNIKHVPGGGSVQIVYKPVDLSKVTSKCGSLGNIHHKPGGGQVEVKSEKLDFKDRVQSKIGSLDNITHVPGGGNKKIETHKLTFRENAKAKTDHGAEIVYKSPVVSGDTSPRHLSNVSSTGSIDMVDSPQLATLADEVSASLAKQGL

Structure (SMILES) | pIC50 [1] | pKi (Alpha-synuclein)
Oc1ccc(-c2nc3cc(O)c(O)cc3o2)cc1O | 5.13 | 
O=C(/C=C/c1ccc(O)c(O)c1)c1ccc(O)c(O)c1 | 4.67 | 
Oc1ccc(-c2nnc(-c3ccc(O)c(O)c3)o2)cc1O | 2.40 | 
O=C(/C=C/c1ccc(O)c(O)c1)c1cc(O)c(O)cc1Br | 4.67 | 
O=[N+]([O-])c1cc(-c2ccc(O)c(O)c2)ccc1-c1ccc(O)c(O)c1 | 4.61 | 
Oc1ccc(-c2cnc(-c3ccc(O)c(O)c3)o2)cc1O | 3.93 | 6.18
Oc1ccc(-c2cn(-c3ccc(O)c(O)c3)nn2)cc1O | 4.47 | 
Oc1ccc(-c2nsc(-c3ccc(O)c(O)c3)n2)cc1O | 4.99 | 
Oc1ccc(-c2cc(Br)c(-c3ccc(O)c(O)c3)s2)cc1O | 3.68 | 
O=C(/C=C/c1cc(O)c(O)cc1Br)c1ccc(O)c(O)c1 | 5.04 | 
Oc1ccc(Cc2cc(O)c(O)cc2O)cc1O | 5.28 | 
CC(=O)N1N=C(c2ccc(O)c(O)c2)CC1c1ccc(O)c(O)c1 (stereo not drawn) | 4.11 | 
